Experimental data published in US20060014712A1, “Controlled delivery of therapeutic compounds” (CeMines, Inc., priority 2004, published 2006).

Key:
B16 [1] = experiment: Cell counting after 7 day peptide treatment; type: cell-based, mouse; settings: CPP mimicking peptides, conc 10 µM, start count 10
Description: The ability to block interaction of MITF, SOX10 and STAT3 with active transcriptional complex and inhibit proliferation and stimulate apoptosis of melanoma cells were tested on human melanoma cell lines SK-MEL-28 and WM 266-4, and mouse melanoma cell line B16. Methods. Human melanoma cell lines SK-MEL-28 and WM 2664 and mouse melanoma cell line B16 were obtained from the American Tissue Culture Collection (ATCC). Cells were cultured according to recommendations of ATCC (DMEM, 10% FCS, penicillin+streptomycin) and used in experiments after two passages in the laboratory. Cells were grown in 24 well plates, each treatment in triplicates. Cells were plated 16 hours prior treatments started. Peptides were added to the media, and media was changed every day during 7 day experiment. […] Cells were precipitated and resuspended in 100 μl of PBS, and 5 μl were removed for counting

Dct/Trp2 promoter [2] = experiment: Transient CAT assay, Dct/Trp2 proximal promoter-CAT construct in SK-MEL-28; type: cell-based, human; settings: CPP concentration 10 μM
Description: (§1) SOX10 and MITF interact with the proximal promoter of Dct/Trp2 gene and induces its activity (Ludwig A. et al., FEBS Lett. 556 (1-3):236-244 (2004)). Thus, a Dct/Trp2 proximal promoter reporter construct was used to analyze effect of mimicking peptides on promoter activity using transient CAT assay.
(§2) Methods. Human melanoma cell lines SK-MEL-28 and WM 266-4 were obtained from the American Tissue Culture Collection (ATCC) and were cultured according to recommendations of ATCC (DMEM, 10% FCS, penicillin+streptomycin). Dct/Trp2 proximal promoter-CAT construct (Ludwig et al., supra) was used in all experiments.
(§3) Cells were transfected by using FuGene reagent (Roche Molecular Biochemicals) according to manufacturer's instructions. Freeze-thaw lysates of cells collected 48 h after the transfection were assayed for CAT activity as described (Pothier, F. et al., DNA Cell Biol. 11(1):83-90 (1992)). At least two different DNA preparations were tested for each plasmid. To normalize the transfection efficiencies, cells were cotransfected with pON260 expressing β-galactosidase (Spaete, R. R. and Mocarski, E. S., J. Virol. 54(3):817-24 (1985); Spaete, R. R. and Mocarski, E. S., J. Virol. 56(1):13543 (1985)). All the CAT activities were normalized to total protein and β-galatosidase activity.
(§4) Following transfection, cells were grown in 6 well plates, each treatment in triplicates. Peptides were added to the media and media was changed every day during the 7 day experiment. CPP concentration was 10 μM.

Dct/Trp2 promoter [3] = experiment: Transient CAT assay, Dct/Trp2 proximal promoter-CAT construct in WM 266-4; type: cell-based, human; settings: CPP concentration 10 μM
Description: as §1, §2, §3, §4

B16 [4] = experiment: WST-1 test (mitochondrial activity); type: cell-based, mouse; settings: CPP mimicking peptides, conc 10 µM, untreated = 1
Description: Methods. Human melanoma cell lines SK-MEL-28 and WM 2664 and mouse melanoma cell line B16 were obtained from the American Tissue Culture Collection (ATCC). Cells were cultured according to recommendations of ATCC (DMEM, 10% FCS, penicillin+streptomycin) and used in experiments after two passages in the laboratory. Cells were grown in 24 well plates, each treatment in triplicates. Cells were plated 16 hours prior treatments started. Peptides were added to the media, and media was changed every day during 7 day experiment. […]

Human keratinocytes [5] = experiment: Cell counting after 7 day peptide treatment; type: cell-based; settings: keratinocyte, modified peptides, conc 10 µM, start count 10
Description: Methods. Human melanoma cell lines SK-MEL-28 and WM 266-4 were obtained from the American Tissue Culture Collection (ATCC) and were cultured according to recommendations of ATCC (DMEM, 10% FCS, penicillin+streptomycin). Human keratinocytes were obtained from Clonetics and cultured according to manufacturers protocol. Cells were used in experiments after two passages in the laboratory. Cells were grown in 24 well plates, each treatment in triplicates. Cells were plated 16 hours prior treatments started. Peptides were added to the media, and media was changed every day during 7 day experiment. CPP concentration was 10 μM. For cell counting, cells were trypsinized (0.25% Trypsin, 2 mM EDTA) in Ca, Mg free PBS. Cells were precipitated and resuspended in 100 μl of PBS, and 5 μl were removed for counting.

Human keratinocytes [6] = experiment: WST-1 test (mitochondrial activity); type: cell-based; settings: keratinocyte; modified peptides; conc 10 µM; untreated = 1
Description: Methods. Human melanoma cell lines SK-MEL-28 and WM 266-4 were obtained from the American Tissue Culture Collection (ATCC) and were cultured according to recommendations of ATCC (DMEM, 10% FCS, penicillin+streptomycin). Human keratinocytes were obtained from Clonetics and cultured according to manufacturers protocol. Cells were used in experiments after two passages in the laboratory. Cells were grown in 24 well plates, each treatment in triplicates. Cells were plated 16 hours prior treatments started. Peptides were added to the media, and media was changed every day during 7 day experiment. […] WST-1 test was performed to measure mitochondrial activity, which can also be used as a measure of cell number.

Human keratinocytes [7] = experiment: Apoptosis, Annexin V-Cy3 Apoptosis Kit; type: cell-based; settings: keratinocyte, modified peptides, conc 10 µM
B16 melanoma = experiment: Mouse tumor xenograft model, peptide membrane patch on skin melanoma; type: in vivo; settings: patch immersed in 100 μM peptide solution, start = 100
Description: The effect of modified mimicking peptides was analyzed by inducing melanomas in mouse skin by grafting suspension of melanoma cells. […] Tumor diameter was measured 1, 2, 3, 5, 7 days after treatmet started.
Methods. Mouse melanoma cell line B16 was cultured as described above, and approximately 5×10^6 cells were injected subcutaneously into the left and right limbs of three C57BL/6JOIaHsd mice.
Administration. Cellulose membrane was immersed in a solution of peptides (100 μM). Size of tumor was measured 1, 2, 3, 5 and 7 days following patch treatment. At the same time new patch was applied. All experiments were done in triplicates (3 animals per group).

Sequence	Cell Count 7 d (B16 [1])	Dct/Trp2 promoter activity (CAT assay) (Dct/Trp2 promoter [2])	Dct/Trp2 promoter activity (CAT assay) (Dct/Trp2 promoter [3])	WST-1 7 d (B16 [4])	Cell Count 7 d (Human keratinocytes [5])	WST-1 7 d (Human keratinocytes [6])	Apoptosis 7 d/% (Human keratinocytes [7]) [%]	tumor size change (%) 1 d (B16 melanoma; 1 d, B16 s.c. in C57BL/6 mice) [%]	tumor size change (%) 2 d (B16 melanoma; 2 d) [%]	tumor size change (%) 3 d (B16 melanoma; 3 d) [%]	tumor size change (%) 5 d (B16 melanoma; 5 d) [%]	tumor size change (%) 7 d (B16 melanoma; 7 d) [%]
RPKKRKVRRRFNINDRIKELGTLIPKSNDPDMRWN [MITF-int1]	63	suppress Dct/Trp2 promoter activity significantly	suppress Dct/Trp2 promoter activity significantly									
RPKKRKVRRRVKRPMNAFMVWAQAARRKLADQY [SOX10-int1]	72	suppress Dct/Trp2 promoter activity significantly	suppress Dct/Trp2 promoter activity significantly	0.88								
TTGGSSPQGLEAKRPKKRKVRRRFNINDRIKELGTLIPKSNDPDMRWN [MITF-int1M]					38	0.93	5	112	135	150	170	210
